Data on 13 molecules can be found in patent US8513233B2, “Pyrimidinyl-propionic acid derivatives and their use as PPAR agonists” (Shanghai Institute of Materia Medica, CAS, priority 2007, dated 2013).

One series deals with T1, PPAR-γ (Homo sapiens, UniProt P37231).
T1 construct: expressed in transfected cells; host or cells: U2OS cells, transiently transfected with pcDNA3.1 expression vectors (FuGene6)
T1 sequence (P37231 1-505): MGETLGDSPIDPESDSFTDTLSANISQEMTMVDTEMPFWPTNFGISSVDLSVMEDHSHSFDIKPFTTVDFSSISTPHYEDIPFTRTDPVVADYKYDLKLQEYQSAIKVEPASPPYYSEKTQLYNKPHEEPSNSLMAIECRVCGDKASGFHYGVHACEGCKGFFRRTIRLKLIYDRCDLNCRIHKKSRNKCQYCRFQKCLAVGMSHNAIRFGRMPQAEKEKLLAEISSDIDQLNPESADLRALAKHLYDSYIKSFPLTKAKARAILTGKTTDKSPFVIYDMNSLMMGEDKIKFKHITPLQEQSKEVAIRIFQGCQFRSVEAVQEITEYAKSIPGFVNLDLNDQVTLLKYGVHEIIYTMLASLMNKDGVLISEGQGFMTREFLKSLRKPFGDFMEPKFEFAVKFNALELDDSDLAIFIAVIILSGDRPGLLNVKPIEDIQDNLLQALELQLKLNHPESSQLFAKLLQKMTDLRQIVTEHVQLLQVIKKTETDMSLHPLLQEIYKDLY
T1 sequence (P19793 1-462 partner): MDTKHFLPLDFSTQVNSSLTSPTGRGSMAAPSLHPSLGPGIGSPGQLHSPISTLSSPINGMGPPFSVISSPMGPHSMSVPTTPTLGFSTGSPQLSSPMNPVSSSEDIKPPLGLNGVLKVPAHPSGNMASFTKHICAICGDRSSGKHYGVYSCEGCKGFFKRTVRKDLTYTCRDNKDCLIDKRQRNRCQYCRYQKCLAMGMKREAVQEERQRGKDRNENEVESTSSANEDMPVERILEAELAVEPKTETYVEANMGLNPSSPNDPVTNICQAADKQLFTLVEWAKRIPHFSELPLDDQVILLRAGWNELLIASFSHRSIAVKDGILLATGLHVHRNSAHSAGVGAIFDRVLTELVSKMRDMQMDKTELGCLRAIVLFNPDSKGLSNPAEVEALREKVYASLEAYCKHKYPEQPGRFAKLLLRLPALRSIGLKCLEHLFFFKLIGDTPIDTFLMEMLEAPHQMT
In words: Transient transfection and transcription assay (luciferase reporter, U2OS cells). It counts as cell-based. Particulars: 24 h treatment. (In a reporter assay the amount or activity of a reporter protein is the signal.)

For the next series, the system named is SPC-A1. The series is described as follows: Growth inhibition, modified MTT assay, SPC-A1. It counts as cell-based. The note with it: SPCA1, mean of 3 independent tests. In short, it runs like this: (§1)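 Cells seeded 24 h in 10% FCS medium, switched to serum-free medium for 24 h, then exposed to graded compound concentrations in triplicate. Viability read by MTT (4 h), formazan dissolved in DMSO, OD at 492 nm; IC50 from sigmoidal fit, mean of 3 independent tests.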
Background: Tetrazolium assays rely on reduction of a dye to a coloured formazan, in cell work by metabolically active cells.

The next series has as its system T24. The series is described as follows: Growth inhibition, modified MTT assay, T24. It counts as cell-based. Particulars: Homo sapiens, T-24, mean of 3 independent tests. In short, it runs like this: as §1
The test system of another series is HepG2. The series is described as follows: Growth inhibition, modified MTT assay, HepG2. The note with it: Homo sapiens, mean of 3 independent tests. It counts as cell-based. Put shortly: as §1
A further series deals with MCF-7. In words: Growth inhibition, modified MTT assay, MCF-7. The note with it: Homo sapiens, MCF7; MCF-7, MTT, mean of 3 independent tests. It counts as cell-based. Put shortly:
as §1

Series [1] concerns ADPKD cyst-lining epithelia. The note with it: dose-dependent and time-dependent; cited from earlier work.
Series [2] deals with human renal epithelial cells (HKC). The note with it: cited from earlier work.
Series [3] concerns Han:SPRD rats, animal model of ADPKD. The series is described as follows: Administration of rosiglitazone on the Han:SPRD rats (earlier study). It counts as in vivo, rat. The note with it: when they died, chronic high dose.

The term EC50 denotes the concentration needed to bring the measured effect to its halfway point. In general, IC50 refers to the midpoint of a concentration-inhibition curve. Higher therefore signals lower potency. As usually defined, the melting point is the temperature, or range, at which the solid turns liquid. The molecule `CC(Cc1ccc(Oc2cc(N3CCN(Cc4cccc(F)c4)CC3)nc(N)n2)cc1)(Oc1ccccc1)C(=O)O` (centres unmarked) [Compound 12, 3-{4-{2-Amino-6-[4-(3-fluoro-benzyl)-piperazin-1-yl]-pyrimidin-4-yloxy}-phenyl}-2-methyl-2-phenoxy-propionic acid] registered a melting point of 113 to 115 °C. It took 6.46 µM to reach a half-maximal effect on PPAR-γ (EC50). The molecule also returned an IC50 in the series on SPC-A1 of over 50 µM. For the same molecule, the IC50 with T24 was over 50 µM. Further, the IC50 in the series on HepG2 was over 50 µM. In the series with MCF-7, the IC50 is over 50 µM.

Consider `CCNc1nc(Oc2ccc(CC(C)(Oc3ccccc3)C(=O)O)cc2)cc(N2CCN(Cc3ccccc3)CC2)n1` (centres unmarked) [Compound 50, 3-{4-[6-(4-Benzyl-piperazin-1-yl)-2-ethylamino-pyrimidin-4-yloxy]-phenyl}-2-methyl-2-phenoxy-propionic acid], for which the melting point was in the range of 106 to 107 °C. On PPAR-γ, the EC50 was determined as 6.03 µM. This molecule also gave an IC50 in the series on SPC-A1 of 46.6 µM. The same molecule yielded an IC50 in the series on T24 of over 50 µM. In the series on HepG2, this molecule returned an IC50 of over 50 µM. In the series on MCF-7, this molecule displayed an IC50 of 33.7 µM.

For `CC(Cc1ccc(Oc2cc(N3CCN(Cc4cccc(Br)c4)CC3)nc(N)n2)cc1)(Oc1ccccc1)C(=O)O` (centres unmarked) [Compound 16, 3-{4-{2-Amino-6-[4-(3-bromo-benzyl)-piperazin-1-yl]-pyrimidin-4-yloxy}-phenyl}-2-methyl-2-phenoxy-propionic acid], the melting point fell in the range of 119 to 120 °C. The midpoint of the response at PPAR-γ, the EC50, lay at 6.31 µM. In addition, the midpoint of inhibition in the series on SPC-A1, the IC50, lay at 37 µM. Further, the IC50 in the series with T24 is 41 µM. In the series with HepG2, this molecule gave a concentration for half-maximal inhibition (IC50) of 48 µM. In the series with MCF-7, this molecule came in with an IC50 of 30 µM.

The molecule `CC(Cc1ccc(Oc2cc(N3CCN(Cc4ccc(Br)cc4)CC3)nc(N)n2)cc1)(Oc1ccccc1)C(=O)O` (centres unmarked) [Compound 15, 3-{4-{2-Amino-6-[4-(4-bromo-benzyl)-piperazin-1-yl]-pyrimidin-4-yloxy}-phenyl}-2-methyl-2-phenoxy-propionic acid] registered a melting point of 112 to 114 °C. The molecule further registered an EC50 at PPAR-γ of 5.89 µM. In the series with SPC-A1, the midpoint of inhibition, the IC50, lay at 45.3 µM. The same molecule returned an IC50 with T24 of over 50 µM. Moreover, the IC50 in the series with HepG2 is over 50 µM. In the series on MCF-7, this molecule displayed an IC50 of 42.2 µM.

In turn, `CCN(CC)c1nc(Oc2ccc(CC(C)(Oc3ccccc3)C(=O)O)cc2)cc(N2CCN(Cc3ccccc3)CC2)n1` (centres unmarked) [Compound 51, 3-{4-[6-(4-Benzyl-piperazin-1-yl)-2-diethylamino-pyrimidin-4-yloxy]-phenyl}-2-methyl-2-phenoxy-propionic acid] showed a melting point of 120 to 121 °C. On PPAR-γ, this molecule had an EC50 of 7.08 µM. The molecule also registered an IC50 in the series with SPC-A1 of 36.6 µM. Moreover, 21.9 µM corresponded to half-maximal inhibition with T24 (IC50). Also, the midpoint of inhibition with HepG2, the IC50, lay at 37.5 µM. Further, the IC50 in the series with MCF-7 came to 27.6 µM.

As for `CC(Cc1ccc(Oc2cc(N3CCN(Cc4ccccc4)CC3)nc(N3CCOCC3)n2)cc1)(Oc1ccccc1)C(=O)O` (centres unmarked) [Compound 53, 3-{4-[6-(4-Benzyl-piperazin-1-yl)-2-morpholin-4-yl-pyrimidin-4-yloxy]-phenyl}-2-methyl-2-phenoxy-propionic acid], the melting point lay within 127 to 129 °C. On PPAR-γ, the EC50 stood at 3.98 µM. The molecule also came in with a half-inhibitory concentration (IC50) in the series on SPC-A1 of 22.4 µM. For the same molecule, it took 15.8 µM to reach half-maximal inhibition in the series with T24 (IC50). Moreover, the IC50 with HepG2 is 22.2 µM. In the series on MCF-7, this molecule displayed an IC50 of 12.5 µM.

On to `CC(Cc1ccc(Oc2cc(N3CCN(Cc4cccc(Cl)c4)CC3)nc(N)n2)cc1)(Oc1ccccc1)C(=O)O` (centres unmarked) [Compound 11, 3-{4-{2-Amino-6-[4-(3-chloro-benzyl)-piperazin-1-yl]-pyrimidin-4-yloxy}-phenyl}-2-methyl-2-phenoxy-propionic acid], for which the melting point is 87 to 89 °C. The molecule further gave a half-maximal effective concentration (EC50) at PPAR-γ of 5.13 µM. The IC50 in the series with SPC-A1 worked out at 47.6 µM. The molecule further returned an IC50 in the series on T24 of over 50 µM. In the series with HepG2, this molecule came in with an IC50 of over 50 µM. The same molecule showed an IC50 in the series on MCF-7 of 40.6 µM.

As for `CC(Cc1ccc(Oc2cc(N3CCN(Cc4ccccc4)CC3)nc(N3CCCC3)n2)cc1)(Oc1ccccc1)C(=O)O` (centres unmarked) [Compound 54, 3-{4-[6-(4-Benzyl-piperazin-1-yl)-2-pyrrolidin-1-yl-pyrimidin-4-yloxy]-phenyl}-2-methyl-2-phenoxy-propionic acid], the melting point was 126 to 127 °C. Moreover, on PPAR-γ, the EC50 was 3.8 µM. The IC50 in the series with SPC-A1 is over 50 µM. In the series on T24, the concentration for half-maximal inhibition (IC50) was over 50 µM. The IC50 with HepG2 is over 50 µM. Moreover, the IC50 with MCF-7 is over 50 µM.

Molecule `CC(Cc1ccc(Oc2cc(N3CCN(Cc4ccccc4)CC3)nc(N3CCCCC3)n2)cc1)(Oc1ccccc1)C(=O)O` (centres unmarked) [Compound 52, 3-{4-[6-(4-Benzyl-piperazin-1-yl)-2-piperidin-1-yl-pyrimidin-4-yloxy]-phenyl}-2-methyl-2-phenoxy-propionic acid] had a melting point of 125 to 126 °C. On PPAR-γ, the EC50 amounted to 4.68 µM. Moreover, in the series on SPC-A1, the IC50 is 7.8 µM. In addition, in the series with T24, the IC50 came out at 12.4 µM. This molecule also gave a half-maximal inhibitory concentration (IC50) with HepG2 of 17.9 µM. Half-maximal inhibition in the series on MCF-7 (IC50) was put at 17.6 µM.

With `CCCCC/C=C/C=C1/C(=O)C=C[C@@H]1C/C=C\CCCC(=O)O` [Compound 15d-PGJ2, 15d-PGJ2], in series [1], the “apoptosis of ADPKD cyst-lining epithelia” value is “induce apoptosis” and the “proliferation of ADPKD cyst-lining epithelia” value is reported as “inhibit the proliferation”. Also, in series [2], the “effect on human renal epithelial cells (HKC)” value is on record as “relatively weak”.

On to `CC(Cc1ccc(Oc2cc(N3CCN(Cc4ccc5c(c4)OCO5)CC3)nc(N)n2)cc1)(Oc1ccccc1)C(=O)O` (centres unmarked) [Compound 5], for which the melting point was in the range of 190 to 192 °C. The midpoint of the response at PPAR-γ, the EC50, lay at 6.46 µM. Besides, the IC50 in the series on SPC-A1 is over 50 µM. For the same molecule, in the series on T24, the IC50 is over 50 µM. The IC50 in the series with HepG2 was over 50 µM. The molecule also gave an IC50 in the series with MCF-7 of over 50 µM.

Take `CN(CCOc1ccc(CC2SC(=O)NC2=O)cc1)c1ccccn1` (centres unmarked) [Rosiglitazone, reference compound]: the IC50 with SPC-A1 worked out at 59.8 µM; in the series on T24 it was 69 µM; in the series with HepG2, 80.2 µM; with MCF-7, 45.6 µM. Besides, the “heart and liver weight” value in series [3] is “heart and liver weight gain”.

For `CN(C)c1nc(Oc2ccc(CC(C)(Oc3ccccc3)C(=O)O)cc2)cc(N2CCN(Cc3ccccc3)CC2)n1` (centres unmarked) [Compound 49, 3-{4-[6-(4-Benzyl-piperazin-1-yl)-2-dimethylamino-pyrimidin-4-yloxy]-phenyl}-2-methyl-2-phenoxy-propionic acid], the melting point was in the range of 136 to 138 °C. For the same molecule, at PPAR-γ, a half-maximal response (EC50) required 2.95 µM. The molecule also displayed a 50% inhibitory concentration (IC50) in the series on SPC-A1 of over 50 µM. Further, the half-inhibitory concentration (IC50) in the series on T24 is over 50 µM. The IC50 in the series on HepG2 is over 50 µM. Besides, the IC50 with MCF-7 was over 50 µM.
